Assays:
[1] = molecular target: FGFR2 (Homo sapiens (Human), UniProt P21802); test: FGFR2 Biochemical Caliper Assay
Procedure: Compounds of the present invention were also tested in a FGFR2 Biochemical Caliper Assay. Compounds were prepared in 10 mM DMSO solution and serially diluted into 11 concentrations by 3-fold dilution. […] 5 uL of ATP solution (100 uM) was added to start the reaction and the plate was incubated for 90 minutes, then 70 uL of stopping buffer (0.5M EDTA) was added to terminate the reaction. Each well was analyzed using EZ reader.

[2] = tested on: SNU16 cells; test: SNU16 Cancer Cell Line Proliferation Assay; type: cell-based; conditions: Homo sapiens; SNU-16 cells
Method in brief: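 Proliferation read-out: CellTiter Glo chemiluminescence after 96 h compound exposure. Test compounds, serially diluted 3-fold over 11 points from a 10 mM DMSO stock, were added to SNU16 cells plated 24 h earlier at 37 degrees.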

Sequence of FGFR2 (P21802 22-821): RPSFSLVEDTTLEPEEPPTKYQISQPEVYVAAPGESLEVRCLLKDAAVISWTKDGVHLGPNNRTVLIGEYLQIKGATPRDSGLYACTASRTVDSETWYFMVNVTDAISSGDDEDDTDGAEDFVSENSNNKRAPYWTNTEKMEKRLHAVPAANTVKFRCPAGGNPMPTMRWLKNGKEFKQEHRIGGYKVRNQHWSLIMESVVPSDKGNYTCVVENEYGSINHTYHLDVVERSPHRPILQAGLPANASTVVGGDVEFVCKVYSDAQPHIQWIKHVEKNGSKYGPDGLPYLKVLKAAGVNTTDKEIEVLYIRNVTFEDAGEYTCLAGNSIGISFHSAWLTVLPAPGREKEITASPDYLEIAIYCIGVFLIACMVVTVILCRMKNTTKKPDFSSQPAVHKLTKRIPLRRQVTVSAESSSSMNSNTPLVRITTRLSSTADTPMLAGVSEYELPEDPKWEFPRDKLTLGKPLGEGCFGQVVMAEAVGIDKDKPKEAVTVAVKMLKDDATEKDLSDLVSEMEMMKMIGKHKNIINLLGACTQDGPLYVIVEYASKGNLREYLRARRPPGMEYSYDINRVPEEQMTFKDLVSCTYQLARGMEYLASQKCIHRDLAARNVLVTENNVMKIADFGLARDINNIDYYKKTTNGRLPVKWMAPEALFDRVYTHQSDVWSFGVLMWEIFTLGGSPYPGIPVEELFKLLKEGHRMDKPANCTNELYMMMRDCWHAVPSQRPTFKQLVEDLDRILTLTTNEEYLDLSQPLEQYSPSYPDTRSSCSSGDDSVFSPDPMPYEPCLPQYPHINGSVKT

| Structure (SMILES) | IC50 [1] [nM] | IC50 [2] [nM] |
| --- | --- | --- |
| C=C(C)C(=O)Nc1ccc(-c2c(-c3ccc(S(=O)(=O)N(C)CC(F)(F)F)cc3)c3c(N)ncnc3n2C)cc1 [Example 316] | 250 to 1000 | 250 to 1000 |
| C=C(C)C(=O)Nc1ccc(-c2c(-c3ccc(S(=O)(=O)NC4CCCC4OC)cc3)c3c(N)ncnc3n2C)cc1 (stereo not shown) [Example 318] | 1000 to 100000 | 250 to 1000 |
| C=C(C)C(=O)Nc1ccc(-c2c(-c3ccc(C(=O)NCC4CC4)cc3)c3c(N)ncnc3n2C)cc1 [Example 320] | < 100 | ≤ 100 |
| C=C(C)C(=O)Nc1ccc(-c2c(-c3ccc(C(=O)NC4CCCC4OC)cc3)c3c(N)ncnc3n2C)cc1 (stereo not shown) [Example 321] | 100 to 250 | 100 to 250 |
| C=C(C)C(=O)Nc1ccc(-c2c(-c3ccc(C(=O)N(C)Cc4ncon4)cc3)c3c(N)ncnc3n2C)cc1 [Example 324] | 1000 to 100000 | 250 to 1000 |
| C=C(C)C(=O)Nc1ccc(-c2c(-c3ccc(C(=O)NC4CCCOC4)cc3)c3c(N)ncnc3n2C)cc1 (stereo not shown) [Example 327] | < 100 | 100 to 250 |
| C=C(C)C(=O)Nc1ccc(-c2c(-c3ccc(C(=O)N[C@@H](CO)CC4CC4)cc3)c3c(N)ncnc3n2C)cc1 [Example 329] | < 100 | 250 to 1000 |
| C=C(C)C(=O)Nc1ccc(-c2c(-c3ccc(C(=O)NCC(C)(C)CO)cc3)c3c(N)ncnc3n2C)cc1 [Example 331] | < 100 | ≤ 100 |
| C=C(C)C(=O)Nc1ccc(-c2c(-c3ccc(C(=O)NCC(O)C(F)(F)F)cc3)c3c(N)ncnc3n2C)cc1 (stereo not shown) [Example 332] | < 100 | 250 to 1000 |
| C=C(C)C(=O)Nc1ccc(-c2c(-c3ccc(C(=C)N[C@H]4CCOC4)cc3)c3c(N)ncnc3n2C)cc1 [Example 335] | 250 to 1000 | 250 to 1000 |
| C=C(C)C(=O)Nc1ccc(-c2c(-c3ccc(C(=O)NCC#N)cc3)c3c(N)ncnc3n2C)cc1 [Example 337] | 250 to 1000 | 250 to 1000 |
| C=C(C)C(=O)Nc1ccc(-c2c(-c3ccc(C(=O)NCC4(F)COC4)cc3)c3c(N)ncnc3n2C)cc1 [Example 338] | < 100 | ≤ 100 |
| C=C(C)C(=O)Nc1ccc(-c2c(-c3ccc(Oc4ncc(C)cn4)cc3)c3c(N)ncnc3n2C)cc1 [Example 339] | 100 to 250 | ≤ 100 |
| C=C(C)C(=O)Nc1ccc(-c2c(-c3ccc(Oc4cccc(C)n4)cc3)c3c(N)ncnc3n2C)cc1F [Example 340] | < 100 | ≤ 100 |
| C=C(C)C(=O)Nc1ccc(-c2c(-c3ccc(Oc4cccc(C)n4)cc3)c3c(N)ncnc3n2C)c(F)c1 [Example 341] | < 100 | ≤ 100 |
| C=C(C)C(=O)Nc1ccc(-c2c(-c3ccc(Oc4cccc(OC)n4)cc3)c3c(N)ncnc3n2C)cc1 [Example 342] | < 100 | ≤ 100 |
| C=C(C)C(=O)Nc1ccc(-c2c(-c3ccc(Oc4cccc(C)n4)cc3)c3c(N)ncnc3n2C)cc1OC [Example 344] | 100 to 250 | ≤ 100 |
| C=C(C)C(=O)Nc1ccc(-c2c(-c3ccc(C(=O)N[C@@H](COC)C4CC4)cc3)c3c(N)ncnc3n2C)cc1 [Example 346] | < 100 | ≤ 100 |
| C=C(C)C(=O)Nc1ccc(-c2c(-c3ccc(C(=O)NCC4CCO4)cc3)c3c(N)ncnc3n2C)cc1 (stereo not shown) [Example 348] | < 100 | 250 to 1000 |

| Structure (SMILES) | IC50 [1] [nM] | IC50 [2] [nM] |
| --- | --- | --- |
| C=C(C)C(=O)Nc1ccc(-c2c(-c3ccc(C(=O)NCC4(OC)CCC4)cc3)c3c(N)ncnc3n2C)cc1 [Example 351] | < 100 | ≤ 100 |
| C=C(C)C(=O)Nc1ccc(-c2c(-c3ccc(C(=O)NC4C5COCC54)cc3)c3c(N)ncnc3n2C)cc1 (stereo not shown) [Example 352] | 250 to 1000 | 250 to 1000 |
| C=C(C)C(=O)Nc1ccc(-c2c(-c3ccc(C(=O)N4CCC[C@H](OC)C4)cc3)c3c(N)ncnc3n2C)cc1 [Example 353] | 1000 to 100000 | 250 to 1000 |
| C=C(C)C(=O)Nc1ccc(-c2c(-c3ccc(C(=O)N4CCCC4)cc3)c3c(N)ncnc3n2C)cc1OC [Example 354] | 1000 to 100000 | 250 to 1000 |
| C=C(C)C(=O)Nc1ccc(-c2c(-c3ccc(C(=O)N4CCCC4)cc3)c3c(N)ncnc3n2C)c(F)c1 [Example 355] | < 100 | ≤ 100 |
| C=C(C)C(=O)Nc1ccc(-c2c(-c3ccc(C(=O)N4CCC[C@H]4COC)cc3)c3c(N)ncnc3n2C)cc1 [Example 357] | < 100 | ≤ 100 |
| C=C(C)C(=O)Nc1ccc(-c2c(-c3ccc(C(=O)N4CCC[C@@H]4COC)cc3)c3c(N)ncnc3n2C)cc1 [Example 361] | 250 to 1000 | 250 to 1000 |
| C=C(C)C(=O)Nc1ccc(-c2c(-c3ccc(C(=O)NCC4CCOC4)cc3)c3c(N)ncnc3n2C)cc1 (stereo not shown) [Example 362] | < 100 | 250 to 1000 |
| C=C(C)C(=O)Nc1ccc(-c2c(-c3ccc(C(=O)NC4(COC)CCC4)cc3)c3c(N)ncnc3n2C)cc1 [Example 365] | < 100 | ≤ 100 |
| C=C(C)C(=O)Nc1ccc(-c2c(-c3ccc(C(=O)N(C)CC(C)(C)O)cc3)c3c(N)ncnc3n2C)cc1 [Example 368] | 250 to 1000 | 250 to 1000 |
| C=C(C)C(=O)Nc1ccc(-c2c(-c3ccc(C(=O)N4CCCCC4COC)cc3)c3c(N)ncnc3n2C)cc1 (stereo not shown) [Example 369] | < 100 | ≤ 100 |
| C=C(C)C(=O)Nc1ccc(-c2c(-c3ccc(Oc4cccc(C)n4)cc3)c3c(N)ncnc3n2CCOC)cc1 [Example 370] | < 100 | ≤ 100 |
| C=C(C)C(=O)Nc1ccc(-c2c(-c3ccc(C(=O)NC(CF)CF)cc3)c3c(N)ncnc3n2C)cc1 [Example 371] | < 100 | ≤ 100 |
| C=C(C)C(=O)Nc1ccc(-c2c(-c3ccc(C(=O)NCC4(CO)CC4)cc3)c3c(N)ncnc3n2C)cc1 [Example 372] | < 100 | 250 to 1000 |
| C=C(C)C(=O)Nc1ccc(-c2c(-c3ccc(C(=O)NCC(C)(C)C#N)cc3)c3c(N)ncnc3n2C)cc1 [Example 373] | < 100 | ≤ 100 |
| C=C(C)C(=O)Nc1ccc(-c2c(-c3ccc(C(=O)N(C)Cc4nnc(C)o4)cc3)c3c(N)ncnc3n2C)cc1 [Example 374] | 1000 to 100000 | 250 to 1000 |
| C=C(C)C(=O)Nc1ccc(-c2c(-c3ccc(C(=O)N(C)Cc4noc(C)n4)cc3)c3c(N)ncnc3n2C)cc1 [Example 375] | 250 to 1000 | 250 to 1000 |
| C=C(C)C(=O)Nc1ccc(-c2c(-c3ccc(C(=O)NCC4CCCO4)cc3)c3c(N)ncnc3n2C)cc1 (stereo not shown) [Example 376] | < 100 | ≤ 100 |
| C=C(C)C(=O)Nc1ccc(-c2c(-c3ccc(C(=O)NCC4CCCN4C)cc3)c3c(N)ncnc3n2C)cc1 (stereo not shown) [Example 377] | 250 to 1000 | 250 to 1000 |

| Structure (SMILES) | IC50 [1] [nM] | IC50 [2] [nM] |
| --- | --- | --- |
| C=C(C)C(=O)Nc1ccc(-c2c(-c3ccc(Oc4cccc(C)n4)c(OCCOC)c3)c3c(N)ncnc3n2C)cc1 [Example 378] | 1000 to 100000 | 250 to 1000 |
| C=C(C)C(=O)Nc1ccc(-c2c(-c3ccc(Oc4cccc(N)n4)cc3)c3c(N)ncnc3n2C)cc1 [Example 379] | < 100 | ≤ 100 |
| C=C(C)C(=O)Nc1ccc(-c2c(-c3ccc(Oc4cccc(C)n4)cc3)c3c(N)ncnc3n2C)cc1CN(C)C [Example 380] | 100 to 250 | 250 to 1000 |
| C=C(C)C(=O)Nc1ccc(-c2c(-c3ccc(C(=O)NCC4CCC4)cc3)c3c(N)ncnc3n2C)cc1 [Example 381] | < 100 | ≤ 100 |
| C=C(C)C(=O)Nc1ccc(-c2c(-c3ccc(Oc4nccc(C)n4)cc3)c3c(N)ncnc3n2C)cc1 [Example 382] | < 100 | ≤ 100 |
| C=C(C)C(=O)Nc1ccc(-c2c(-c3ccc(C(=O)NCc4ccn(C)n4)cc3)c3c(N)ncnc3n2C)cc1 [Example 383] | 1000 to 100000 | 250 to 1000 |
| C=C(C)C(=O)Nc1ccc(-c2c(-c3ccc(Oc4cccc(C)n4)cc3)c3c(N)ncnc3n2C)c(C)c1 [Example 384] | < 100 | ≤ 100 |
| C=C(C)C(=O)Nc1ccc(-c2c(-c3ccc(Oc4cccc(C)n4)cc3)c3c(N)ncnc3n2C)cc1C [Example 385] | 100 to 250 | ≤ 100 |
| C=C(C)C(=O)Nc1ccc(-c2c(-c3ccc(C(=O)NC4CCOC4)c(OC)c3)c3c(N)ncnc3n2C)cc1 (stereo not shown) [Example 386] | < 100 | 100 to 250 |
| C=C(C)C(=O)Nc1ccc(-c2c(C3=CCC(C(=O)N4CC5CCC(C5)C4)CC3)c3c(N)ncnc3n2C)cc1 (stereo not shown) [Example 387] | 100 to 250 | ≤ 100 |
| C=C(C)C(=O)Nc1ccc(-c2c(-c3ccc(C(=O)N4CCC[C@@H](OC)C4)cc3)c3c(N)ncnc3n2C)cc1 [Example 388] | 250 to 1000 | 100 to 250 |
| C=C(C)C(=O)Nc1ccc(-c2c(-c3ccc(C(=O)NCC4CCC4)c(OC)c3)c3c(N)ncnc3n2C)cc1 [Example 391] | < 100 | ≤ 100 |
| C=C(C)C(=O)Nc1ccc(-c2c(-c3ccc(Oc4nnc(C)o4)cc3)c3c(N)ncnc3n2C)cc1 [Example 393] | 1000 to 100000 | 250 to 1000 |
| C=C(C)C(=O)Nc1ccc(-c2c(-c3ccc(Oc4cccc(C)n4)c(F)c3)c3c(N)ncnc3n2C)cc1 [Example 395] | < 100 | ≤ 100 |
| C=C(C)C(=O)Nc1ccc(-c2c(-c3ccc(C(=O)NCC4CCC4)nc3)c3c(N)ncnc3n2C)cc1 [Example 399] | 100 to 250 | ≤ 100 |
| C=C(COC)C(=O)Nc1ccc(-c2c(-c3ccc(Oc4cccc(C)n4)cc3)c3c(N)ncnc3n2C)cc1 [Example 401] | < 100 | ≤ 100 |
| C=C(C)C(=O)Nc1ccc(-c2c(-c3ccc(C(=O)N4CCCC4)cc3)c3c(N)ncnc3n2C)c(C)c1 [Example 406] | < 100 | ≤ 100 |
| C=C(C)C(=O)Nc1ccc(-c2c(-c3ccc(C(=O)NCC(C)(C)F)cc3)c3c(N)ncnc3n2C)cc1 [Example 408] | < 100 | ≤ 100 |
